Results: patent US5583000A, “Protease-binding compounds and methods of use” (priority 1993, dated 1996)
≈ marks a conversion by molar mass, not a printed value. Like-named read-outs stand apart in the source and are kept apart here.

Tests used:
[1] = in vitro
Method: Cytotoxicity. The MTT assay was performed as follows:
The cells were seeded in 96-well plates and grown overnight to near 50% confluency. A serial dilution (1 to 500 μM) of each compound in culture media was prepared and 250 μL/well was added in duplicate. The cells were allowed to grow for various periods of time (6, 24, 48 hours) and any precipitation of compounds in the wells was noted. The assay was performed by removing 200 μL of the culture media and adding 25 μL of MTT solution (2 mg/mL in phosphate buffered saline (PBS)). This was incubated for 4 hours at 37° C. and live cells began to turn purple while the solution remained yellow. To quench the reaction and solubilize the reaction product, 160 μL of acidified isopropanol (4 mL 1N HCl for 96 mL alcohol) were added and the resulting mixture was mixed vigorously to dissolve purple crystals. Absorbance was determined at 550-570 nm on an ELISA plate reader within 0.5-2 hours. […] To obtain the LD50 values for each compound, the concentration at which the absorbance is haft of that for the untreated cells was determined.

[2] = Solubility
[3] = physchem
[4] = in vitro; conditions: african green monkey, cos-7 cells
Method: MTT cell viability assay. This is a quantitative colorimetric assay for mammalian cell survival and proliferation. Cells were seeded in 96 well plates and grown to near 50% confluency. A serial dilution (1 to 500 μM) of each compound was then prepared in culture media and added (250 μL/well) in duplicate. All culture media was adjusted to a final concentration of 1.0% DMSO (volume basis). The cells were allowed to grow for either 4 hours or 24 hours. The culture media were then removed, and the cells were washed with phosphate buffered saline (PBS) before 50 μL of MTT solution (1 mg/mL in PBS) was added. After incubating for 4 hours at 37° C., the reaction was quenched by adding 160 μL of acidified isopropanol and mixing to dissolve purple crystals. The absorbance was determined within 30 minutes at 570 nm on an ELISA plate reader.
The cytotoxic effect of the inhibitors was determined using the MTT stain viability assay.

[5] = biological target: T1, HIV-2 PR (Human immunodeficiency virus type 2 subtype A, UniProt P04584); assay: biochemical; assay type: biochemical; conditions: for KI (inactivation): read-out: kinact (μM) HIV-2
T1 construct: HIV-2 PR (at a final concentration of 30 μg/mL); made in house
T1 sequence (P04584 514-612 limits assumed): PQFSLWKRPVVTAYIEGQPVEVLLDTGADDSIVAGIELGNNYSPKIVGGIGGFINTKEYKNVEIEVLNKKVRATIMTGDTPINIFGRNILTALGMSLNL

[6] = biological target: HIV-1 PR Q7K (Human immunodeficiency virus type 1 group M subtype B, UniProt P03369, Q497K); assay type: biochemical; conditions: read-out: kinact (μM) HIV-1; inhibitor concentration resulting in half-maximal inactivation; pH 8.0, 25° C.
[7] = biological target: HIV-1 protease (Human immunodeficiency virus type 1 group M subtype B, UniProt P03369); assay: biochemical
[8] = biological target: T2, HIV-2 protease (Human immunodeficiency virus type 2 subtype A, UniProt P04584); assay: biochemical; conditions: 1M NaCl
T2 construct: the coding region of the 99-amino acid protease; made in house; host or cells: Saccharomyces cerevisiae strain AB110, plasmid pHIV2PR115
T2 sequence (P04584 514-612 limits assumed): as above
Method: The decapeptide was synthesized by conventional solid-state methods. Reactions were carried out and fractionated by HPLC. Conversion of the decapeptide to the two pentapeptides was quantitated by integration of the peak areas and comparison to product standard curves.
Enzymatic Inhibition. […] Each data point was done in triplicate and initial enzyme rates were fit to the Michaelis-Menten equation using a nonlinear regression program ("Enzfitter" from Biosoft).

[9] = tested on: p24; assay: p24 core antigen ELISA of virus from treated COS-7 cells; conditions: Human immunodeficiency virus 1, COS-7, 4 h, read-out: Reduction of p24 IC50 (μM)
Method: Drug treatment. The compounds were added 48 hours post-transfection, at the peak of virus production, and the incubation was restricted to a 4-hour period. […] Culture media were adjusted to the desired concentration of these compounds just prior to the addition of the media to cells. To avoid precipitation, the compounds were aliquoted first to a tube in sufficient DMSO to yield a 1.0% final concentration, and subsequently the culture medium was added quickly and vortexed. The culture medium was collected after 4 hours of incubation of the cells with each of the compounds. This culture supernatant is the source of virus for measurement of infectivity as well as levels of p24 and other capsid proteins.
p24 Core antigen ELISA assay. An ELISA kit purchased from NEN/Dupont was used to determine the amount of p24 present in culture media or virus preparations. This capture assay uses a monoclonal antibody that preferentially binds p24 while it reacts with larger capsid protein precursors to a very limited extent. The assay was carded out using the manufacturer's indications. Samples were pre-treated with 1% Triton to inactivate the virus.
Virus isolation by ultracentrifugation. The culture medium was filtered through a 0.45 μm syringe filter and was then centrifuged to remove any precipitate. The medium was then spun through a cushion of 20% sucrose in PBS in an SW41 Beckman rotor for 1.5 hours at 35K and 4° C. The pelleted material was collected.
Following incubation of virus-producing cells with various concentrations of the test compounds, the virus particles were isolated by ultracentrifugation. These particles were disrupted using Triton X-100 and the amount of p24 capsid protein was quantitated by ELISA.

[10] = inhibitor concentration resulting in half-maximal inactivation, pH 8.0, 25° C.
[11] = pH 8, maximum inactivation rate, read-out: Vinact (min^-1 × 10^3) HIV-2 (converted)
[12] = HIV-1 Protease IC50 (μM) 1M NaCl
[13] = HIV-1 Protease IC50 (μM) 1M NaCl, 1M NaCl

| Structure (SMILES) | CC50 at 6 h [1] [µM] | solubility [2] [µM] | solubility [3] [µM] | IC50 [7, 12] [µM] | IC50 [7, 13] [µM] | IC50 [8] [µM] | HIV-1 Protease Therapeutic Index (LD50 /IC50) [7] | further results |
| --- | --- | --- | --- | --- | --- | --- | --- | --- |
| O=C(CCCC1(O)CCC(O)(c2ccc(Cl)cc2)CC1)c1ccc(F)cc1 (stereo not drawn) [UCSF65, 4-(4'-p-fluorophenyl-4'-butanone)-1-p-chlorophenyl-1,4-cyclohexanediol] | 250 | < 100 | – | – | – | – | – | – |
| O=C(C=C(CN1CCC(O)(c2ccc(Cl)cc2)CC1)SCCO)c1ccccc1 [UCSF178, 4-(4'-(4"-chlorophenyl)-4'-hydroxypiperidinyl)-3-(2'-hydroxyethylthio)-1-phenyl-2-buten-1-one] | > 250 | – | 150 (≈ 64.8 µg/mL) | 140 | – | – | – | CC50 at 4 h [4]: > 250 µM; CC50 at 24 h [4]: 75 µM; KI (inactivation) [5, 10]: 120 ± 9.9 µM; kinact [5, 11]: 0.0046 min⁻¹; KI (inactivation) [6]: 232 ± 10.8 µM |
| C=C(CCCC1(O)CCC(O)(c2ccc(Cl)cc2)CC1)c1ccccc1 (stereo not drawn) [UCSF41, 4-(4'-phenyl-4-pentenyl)-1-(p-chlorophenyl)-1,4-cyclohexanediol] | 90 | > 500 | – | – | 160 | – | – | HIV-1 Protease Therapeutic Index (LD50 /IC50) ([7]; LD50/IC50): 0.6 |
| OC1(CCCCc2ccccc2)CCC(O)(c2ccc(Cl)cc2)CC1 (stereo not drawn) [UCSF54] | 190 | > 500 | – | – | 2500 | – | – | HIV-1 Protease Therapeutic Index (LD50 /IC50) ([7]; LD50/IC50): < 0.08 |
| O=C(c1ccc(N2CCC(O)(c3ccc(Cl)cc3)CC2)cc1)C1(CC#CCO)CC1 [UCSF83] | > 250 | > 250 | – | – | 15 | 78 | – | – |
| O=C(c1ccc(N2CCC(O)(c3ccc(Cl)cc3)CC2)cc1)C1CC1 [UCSF81] | > 250 | > 250 | – | – | 200 | 1000 | – | HIV-1 Protease Therapeutic Index (LD50 /IC50) ([7]; LD50/IC50): > 1.25 |
| C=CCCCC1(C(=O)c2ccc(N3CCC(O)(c4ccc(Cl)cc4)CC3)cc2)CC1 [UCSF82] | > 250 | < 100 | – | – | 100 | 800 | – | – |
| O=C(C#CCN1CCC(O)(c2ccc(Cl)cc2)CC1)c1ccc(-c2ccccc2)cc1 [UCSF231, 4-(4'-(4"-chlorophenyl)-4'-hydroxypiperidinyl)-1-p-biphenylbut-2-yn-1-one] | 10 | – | – | 100 | – | – | < 0.1 | CC50 at 4 h [4]: < 5 µM; CC50 at 24 h [4]: < 5 µM; KI (inactivation) [6]: 385 ± 58 µM |
| OC(CCCC1(O)CCN(Cc2ccccc2)CC1)c1ccccc1 (stereo not drawn) [UCSF77] | 500 | > 500 | – | – | 2500 | 500 | – | – |
| O=C(/C=C/C[N+]1([O-])CCC(O)(c2ccc(Cl)cc2)CC1)c1ccc(F)cc1 (stereo not drawn) [UCSF115] | 250 | – | 250 (≈ 97.5 µg/mL) | 30 | – | – | – | IC50 [9]: 75 µM; CC50 at 4 h [4]: 250 µM; CC50 at 24 h [4]: 200 µM; KI (inactivation) [5, 10]: 116 ± 4.7 µM; kinact [5, 11]: 0.0052 min⁻¹; KI (inactivation) [6]: 144 ± 14.8 µM |
| OC1(C2(c3ccc(Cl)cc3)SCCCS2)CCN(CCCC2(c3ccc(F)cc3)SCCS2)CC1 [UCSF75] | 200 | < 50 | – | – | 50 | 13 | – | – |
| OC(CC#CC1(O)CCN(Cc2ccccc2)CC1)c1ccccc1 (stereo not drawn) [UCSF72] | 260 | > 500 | – | – | 750 | – | – | – |
| OC(CC=CC1(O)CCN(Cc2ccccc2)CC1)c1ccccc1 (stereo not drawn) [UCSF76] | 440 | > 500 | – | – | 1650 | – | – | – |
| OC1(c2ccc(Cl)cc2)CCN(CCCC2(c3ccc(F)cc3)OCCO2)CC1 [UCSF16, (1,2-ethyloxoacetal)-4-[4-(p-chlorophenyl)-4-hydroxypiperidinyl]-4'-fluorobutyrophenone] | 150 | – | > 250 | – | – | – | 2 | IC50 ([8]; read-out: HIV-2 Protease IC50 (μM) 1M NaCl): 238 µM; IC50 ([7]; read-out: HIV-1 Protease IC50 (μM) 1M NaCl): 75 µM |
| O=C(CCCN1CCC(O)(c2ccc(Cl)cc2)CC1)c1cccc(-c2ccccc2)c1 [UCSF52, 4-(4-(p-chlorophenyl)-4-hydroxypiperidinyl)-3'-phenylbutyrophenone] | 10 | – | < 250 | 20 | – | 19 | 0.5 | – |
| OC1(c2ccc(Cl)cc2)CCN(CCCC2(c3ccccc3)OCCO2)CC1 [UCSF49] | 120 | – | < 50 | 100 | – | 180 | 1.2 | – |
| OC1(c2ccc(Cl)cc2)CCN(CCC[Si](c2ccccc2)(c2ccccc2)c2ccccc2)CC1 [UCSF47, (3-[4-(4-chlorophenyl)-4-hydroxypiperidinyl)-1-propyl)triphenylsilane] | 15 | – | > 500 | 90 | – | 1.5 | 0.2 | – |
| O=C(/C=C/CN1CCC(O)(c2ccc(Cl)cc2)CC1)c1ccc(F)cc1 [UCSF191] | 22 | – | > 150 | 80 | – | – | – | kinact ([5]; pH 8, read-out: Vinact (min^-1 × 10^3) HIV-2): 0.0121 min⁻¹; KI (inactivation) ([5]; hiv-2 pr, pH 8): 156 ± 2.3 µM; KI (inactivation) [6]: 57.2 ± 7.1 µM |
| OC1(c2ccc(Cl)cc2)CCN(CCCNCc2ccccc2)CC1 [UCSF55, 3-[4-(4-chlorophenyl)-4-hydroxypiperidinyl]-N-(benzyl)propylamine] | – | – | > 500 | 2500 | – | > 2500 | < 0.02 | CC50 at 4 h [1]: 60 µM |
| OC1(c2ccc(Cl)cc2)CCN(CCCC2(c3ccc(F)cc3)SCCCS2)CC1 [UCSF10, (1,3-propanethioacetal)-4-[4-(p-chlorophenyl)-4-hydroxypiperidinyl]-4'-fluorobutyrophenone] | 30 | – | < 100 | 15 | – | 88 | 2 | – |
| O=C(C#CCN1CCC(O)(c2ccc(Cl)cc2)CC1)c1ccccc1 [UCSF86, 4-(4'-(4"-chlorophenyl)-4'-hydroxypiperidinyl)-1-phenylbut-2-yn-1-one] | 15 to 20 | – | > 60 | 20 | – | – | – | CC50 at 4 h [4]: 15 µM; CC50 at 24 h [4]: < 10 µM; KI (inactivation) [5, 10]: 131 ± 4.4 µM; kinact [5, 11]: 0.0076 min⁻¹; KI (inactivation) [6]: 62.4 ± 3.1 µM |
| C[N+]1(CCCC(=O)c2ccc(F)cc2)CCC(O)(c2ccc(Cl)cc2)CC1 (stereo not drawn) [UCSF5, 4-[4-(p-chlorophenyl)-4-hydroxy-N-methylpiperidinyl]-4'-fluorobutyrophenone] | > 500 | – | > 250 | 79 | – | > 1000 | > 6.3 | – |
| OC1(C#CC2(c3ccccc3)CO2)CCN(Cc2ccccc2)CC1 (stereo not drawn) [UCSF70, N-benzyl-4-hydroxy-4-(3,4-epoxy-3-phenyl-1-butyny)piperidine] | 120 | > 500 | – | – | 750 | – | – | IC50 [9]: 25 µM; CC50 at 4 h [4]: 70 µM; CC50 at 24 h [4]: 35 µM; KI (inactivation) [6]: 407 ± 61.6 µM |
| OC1(c2ccc(Cl)cc2)CCN(CCCC(O)(c2ccccc2)c2ccc(-c3ccccc3)cc2)CC1 (stereo not drawn) [UCSF33, 4-[4-(p-chlorophenyl)-4-hydroxypiperidinyl)-1-phenyl-1-(p-phenylphenyl)-butan-1-ol] | 10 | – | < 50 | 7 | – | 7 | 1.4 | – |
| CC[C@H]1CSC(CCCN2CCC(O)(c3ccc(Cl)cc3)CC2)(c2ccc(F)cc2)O1 (stereo partly drawn) [UCSF80] | 40 | – | > 250 | 33 | – | 58 | – | – |
| C=C(CCCN1CCC(O)(c2ccc(Cl)cc2)CC1)c1ccc(F)cc1 [UCSF37, 1-[4-(4-chlorophenyl)-4-hydroxypiperidinyl]-4-(4-fluorophenyl)-4-pentene] | 50 | – | < 200 | 39 | – | 34 | 1.3 | – |
| O=C(CCC[N+]1([O-])CCC(O)(c2ccc(Cl)cc2)CC1)c1ccc(F)cc1 (stereo not drawn) [UCSF3, 4-[4-(p-chlorophenyl)-4-hydroxy-N-oxopiperidinyl]-4'-fluorobutyrophenone] | > 500 | – | < 250 | 100 | – | 135 | > 2.5 | – |
| OC1(c2ccc(Cl)cc2)CCN(CCCC2(c3ccc(F)cc3)OCCS2)CC1 (stereo not drawn) [UCSF78] | 35 | – | > 500 | 39 | – | 167 | – | – |
| C=CC(O)(CCCN1CCC(O)(c2ccc(Cl)cc2)CC1)c1ccc(F)cc1 (stereo not drawn) [UCSF40, 6-[4-(4-chlorophenyl)-4-hydroxypiperidinyl]-3-(4-fluorophenyl)hex-1-en-3-ol] | 100 | – | < 100 | 80 | – | 200 | 1.25 | – |
